Laboratory results published in patent US20180009764A1, “METHOD FOR TREATING MACROPHAGE MIGRATION INHIBITORY FACTOR (MIF)-IMPLICATED DISEASES AND CONDITIONS WITH IODO PYRIMIDINE DERIVATIVES” (UNIVERSITY OF LOUISVILLE RESEARCH FOUNDATION, INC., priority 2009, published 2018).

How the values were obtained:
Caco-2 monolayers = test: Caco-2 cell permeability and transport; assay type: in vitro ADME; set-up: Caco-2 Permeability Papp B-A / Caco-2 Permeability Papp A-B: unit not given here; details: for Caco-2 Permeability Papp B-A: basolateral-to-apical
Method: (§1) Cell permeability and transport mechanisms in Caco-2 and MDR1-MDCK monolayers experiments were performed in triplicate in the apical-to-basolateral and basolateral-to-apical direction using […]® wells containing either Caco-2 or MDR1-MDCK monolayers. A modified Hanks buffer pH 7.4 was used in both reservoir and receiver wells with the addition of 1% BSA in the receiver side. Confluent monolayers were used and their integrity was verified using reference compounds (Atenolol as a low permeability reference compound and Propanolol as a high permeability reference compound). A sample in the basolateral and apical sides was taken after 2 hours and the concentration measured by LC/MS-MS.

MDR1-MDCK monolayers = test: MDR1-MDCK cell permeability and transport; assay type: in vitro ADME
Method: as §1

[1] = Microsomal stability in human liver microsomes; assay type: in vitro ADME; details: both, human, microsomes, pH 7.4
Method: Stability in human liver microsomes was tested over […] at 37° C. using pooled mixed gender human liver microsomes. Liver microsomes were prepared at 1.0 mg/ml of microsomal protein in a 100 mM potassium phosphate pH 7.4 buffer with 1 mM NADPH. The media was incubated at 37° C. with the compound in solution in DMSO. The concentration of the compound was followed by LC/MS-MS as a function of time. Samples were assayed at t=0, 30, 60 and 120 minutes. Testosterone was used as a positive control. The same experiment was performed with mouse liver microsomes instead of human liver microsomes.

in vitro = in vitro ADME; details: human, plasma, Human Plasma Protein Binding % Bound
From the text: Plasma protein binding was ascertained using dialysis equilibrium methods known in the art.

Du 145 = test: Inhibition of tumor cells proliferation (CellTiter Glo); assay type: cell-based; details: Homo sapiens, 72 hours
Method: Inhibition of the proliferation of tumor cells was investigated in vitro in several tumor cell lines. Cells of the desired tumor cell line were plated at 2×10^5 cells/ml in 96 well plates. Twice the indicated concentrations of the compounds of the invention were added to cells the following day in an equal volume of media. 72 hours later, cells were lysed and subjected to ATP determination using the CellTiter Glo-Luminescent Cell Viability Assay kit (Promega, Madison, Wis.). Experiments were done in triplicate. Results for the inhibition of cells proliferation are reported as IC50 (the concentration leading to a 50% inhibition of proliferation of the cell population) and are listed in Table 6. FIGS. 3 and 4 show bar graphs comparing the IC50s of specific embodiments of compounds of the invention across multiple tumor cell lines.

MIF = target: T1, MIF (Homo sapiens, UniProt P14174); test: MIF cell lysate enzymatic inhibition; assay type: biochemical; details: cell lysates
T1 construct: the enzymatic activity of MIF present in cell lysates; endogenous in cells
T1 sequence (P14174 2-115 limits assumed): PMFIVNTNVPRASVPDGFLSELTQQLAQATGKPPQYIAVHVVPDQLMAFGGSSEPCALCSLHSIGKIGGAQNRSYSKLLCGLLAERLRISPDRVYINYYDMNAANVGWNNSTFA
Method: Normal or transformed cell lysates can be used to determine the concentration inhibiting the enzymatic activity of MIF present in cell lysates. Cells are cultured in the appropriate media to the required number of cells, collected, and lysed. Compounds to be characterized are solubilized in DMSO and serial dilutions are performed in order to obtain a range of concentrations including complete and no quantifiable inhibition.

[2] = tested on: Chick Chorioallantoic Membrane (CAM); test: Chick chorioallantoic membrane (CAM) assay, o ring; assay type: in vivo; details: for Blood Vessel Density: o ring
Method: (§2) 8 groups with 10 embryos in each group were used in the experiment described below. Fresh fertile eggs were incubated for 3 days in a standard egg incubator at 37° C. for 3 days. On Day 3, eggs were cracked under sterile conditions and embryos were placed into 20×100 mm plastic plates and cultivated at 37° C. in an embryo incubator with a water reservoir on the bottom shelf. Air was continuously bubbled into the water reservoir using a small pump so that the humidity in the incubator is kept constant. On Day 6, a sterile silicon “o” ring was placed on each CAM and test compound dissolved in 0.5% methylcellulose was placed into each “o” ring in a sterile hood. Paclitaxel was used as a positive control. Embryos were returned to the incubator after addition of test material. Control embryos received 10 μL of vehicle alone. On Day 8, embryos were removed from the incubator and kept at room temperature while blood vessel density were determined under each “o” ring using an image capturing system at a magnification of 160×. The blood vessel density was measured using an angiogenesis scoring system in that arithmetic numbers 0 to 5 (or exponential numbers 1 to 32) are used to indicate number of blood vessels present at the treatment sites on the CAM. Number 5 represents the highest density and 0 represents no angiogenesis. The percent of inhibition at each dosing site was calculated using the score recorded for that site divided by the mean score obtained from the appropriate control samples for each individual experiment. The percent of inhibition for each dose of a given compound was calculated by pooling all results obtained for that dose from 8-10 embryos.

[3] = Pharmacokinetics parameters in rats; assay type: in vivo; details: rat, plasma
Method: The pharmacokinetic parameters of several compounds were investigated in rodents. Both oral and iv administration were investigated in rats. Blood samples were collected over time; plasma was analyzed using an LC/MS-MS method. Pharmacokinetic parameters were calculated using Win-NonLin. Terminal plasma half-lives were 7.10 hr for ACT-MIF-001, 1.66 hr for ACT-MIF-002, and 1.50 hr for ACT-MIF-003. […] The volume of distribution values were 72666 mL/kg for ACT-MIF-001, 2118 mL/kg for ACT-MIF-002, and 1926 mL/kg for ACT-MIF-003.

[4] = Caco-2 cell permeability and transport; assay type: in vitro ADME; set-up: Caco-2 Permeability Papp B-A / Caco-2 Permeability Papp A-B: unit not given here; details: human, Caco-2, pH 7.4
Method: as §1

p53 = p53 up regulation, p53 luciferase assay; assay type: cell-based; details: 10 μM; FIG. 5
Method: The up regulation of p53 was determined using a commercially available p53 luciferase assay kit. 1×10^5 cells/ml were plated in a 24 well plate and allowed to adhere overnight. MIF antagonists were added to the cells at the indicated concentrations for 16 hours and transiently co-transfected with 0.125 μg/well of p53-responsive luciferase promoter plasmid (Promega, Madison, Wis.) together with 0.0125 μg/well Renilla pRL-null plasmid (Promega) using Lipofectamine (Invitrogen) transfection reagent. After 24 hrs, Firefly and Renilla luciferase activities were measured by the Dual Luciferase Reporter Assay System (Promega, Madison, Wis.) on a TD-20/20 luminometer (Turner Designs).

[5] = tested on: Chick Chorioallantoic Membrane (CAM); test: CAM assay with matrigel plugs; assay type: in vivo
Method: as §2
Another experiment was performed using a protocol similar to the one described above but using matrigel plugs instead of o ring to deliver the test material to the CAM. Results are summarized in Table 9 below and show a statistically significant inhibition of angiogenesis at the high concentrations of test material.

## COc1ccc(-c2cc(I)ncn2)c(F)c1F [ACT-MIF-001, 4-Iodo-6-(2,3-difluoro-4-methoxyphenyl)pyrimidine]
Caco-2 monolayers
  Caco-2 Permeability Class: Low
Caco-2 monolayers; apical-to-basolateral, pH 7.4, 2 hours
  Caco-2 Permeability Papp A-B: <0.1
Caco-2 monolayers; pH 7.4, 2 hours
  Caco-2 Permeability Papp B-A: <0.1
MDR1-MDCK monolayers
  Brain penetration classification: Low
  P-gp Substrate: No
MDR1-MDCK monolayers; class in words
  Efflux: Low
[1]; 0 h
  Metabolic Stability in Human Microsomes % Remaining: 100%
[1]; 1 h
  Metabolic Stability in Human Microsomes % Remaining: <2%
In vitro
  fraction unbound: 0.017
Du 145
  IC50: < 10000 nM
MIF
  IC50: 37 nM
[2]; 0.3 nM per CAM
  Blood Vessel Density: 10.5 ± 3.4
[2]; 3 nM per CAM
  Blood Vessel Density: 4.1 ± 0.8
[2]; 30 nM per CAM
  Blood Vessel Density: 1.8 ± 0.3
[2]; CAM assay, in words
  Anti-angiogenic properties: high anti-angiogenic properties
[3]; intravenous, read-out: Volume of distribution
  Vd: 72.7 L/kg
[3]; iv, after i.v. administration
  clearance: 763 mL/min/kg
[3]; read-out: Terminal plasma half-life (converted)
  half-life: 7.1 h

## Fc1ncccc1-c1cc(I)ncn1 [ACT-MIF-011, 4-Iodo-6-(2-fluoropyridin-3-yl)pyrimidine]
[4]
  efflux ratio at 2 h: 0.6
Caco-2 monolayers
  Caco-2 Permeability Class: High

## Fc1ccc(-c2cc(I)ncn2)c(F)c1 [ACT-MIF-017, 4-Iodo-6-(2,4-difluorophenyl)pyrimidine]
[1]; 0 h
  Metabolic Stability in Human Microsomes % Remaining: 100%
[1]; 1 h
  Metabolic Stability in Human Microsomes % Remaining: 0%
Du 145
  IC50: < 10000 nM
MIF
  IC50: 190 nM

## CC(=O)Nc1cccc(-c2cc(I)ncn2)c1 [ACT-MIF-021, 4-Iodo-6-(3-acetylaminophenyl)pyrimidine]
[1]; 0 h
  Metabolic Stability in Human Microsomes % Remaining: 100%
[1]; 1 h
  Metabolic Stability in Human Microsomes % Remaining: 73%
MIF
  IC50: 570 nM

## Ic1cc(-c2ccsc2)ncn1 [ACT-MIF-022, 4-Iodo-6-(thiophen-3-yl)pyrimidine]
Du 145
  IC50: < 40000 nM

## Ic1cc(-c2cncc3ccccc23)ncn1 [ACT-MIF-025, 4-Iodo-6-(isoquinolin-4-yl)pyrimidine]
[4]
  efflux ratio at 2 h: 1.5
Caco-2 monolayers
  Caco-2 Permeability Class: Low

## Ic1cc(-c2cccs2)ncn1 [ACT-MIF-030, 4-Iodo-6-(thiophen-2-yl)pyrimidine]
p53
  p53 regulation: implicated in p53 regulation
[5]; 0.3 nM per CAM
  Blood Vessel Counts: 35.6 ± 1.0
[5]; 3 nM per CAM
  Blood Vessel Counts: 32.7 ± 3.2
[5]; 30 nM per CAM
  Blood Vessel Counts: 28.1 ± 2.0

## CCOc1ccc(-c2cc(I)ncn2)cc1F [ACT-MIF-033]
[4]
  efflux ratio at 2 h: 1.1
Caco-2 monolayers
  Caco-2 Permeability Class: High
Caco-2 monolayers; pH 7.4, 2 hours
  Caco-2 Permeability Papp B-A: 3.0
[1]; 0 h
  Metabolic Stability in Human Microsomes % Remaining: 100%
[1]; 1 h
  Metabolic Stability in Human Microsomes % Remaining: 82%
Du 145
  IC50: < 5000 nM
p53
  p53 regulation: implicated in p53 regulation
MIF
  IC50: 115 nM

## NC(=O)c1ccc(-c2cc(I)ncn2)cc1 [ACT-MIF-034, 4-Iodo-6-(4-aminocarbonylphenyl)pyrimidine]
Du 145
  IC50: < 100000 nM
p53
  p53 regulation: implicated in p53 regulation
MIF
  IC50: 270 nM

## Ic1cc(-c2ccnc3ccccc23)ncn1 [ACT-MIF-036, 4-Iodo-6-(quinolin-4-yl)pyrimidine]
MIF
  IC50: 230 nM

## CC(=O)O[C@H]1C(=O)[C@@]2(C)[C@H]([C@H](OC(=O)c3ccccc3)[C@]3(O)C[C@H](OC(=O)[C@H](O)[C@@H](NC(=O)c4ccccc4)c4ccccc4)C(C)=C1C3(C)C)[C@]1(OC(C)=O)CO[C@@H]1C[C@@H]2O [Paclitaxel, reference compound]
[2]; 6 nM per CAM
  Blood Vessel Density: 2.8 ± 0.7
[5]; 2 nM per CAM
  Blood Vessel Counts: 15.5 ± 2.1

## CC(=O)CC(c1ccccc1)c1c(O)c2ccccc2oc1=O (stereo not shown) [Warfarin, reference compound]
In vitro
  fraction unbound: 0.01
